Results published in ChEMBL document CHEMBL4340561, “Application of the concept of oxime library screening by mass spectrometry (MS) binding assays to pyrrolidine-3-carboxylic acid derivatives as potential inhibitors of γ-aminobutyric acid transporter 1 (GAT1)” (Bioorg Med Chem, 2019).

How the values were obtained:
[1] = biological target: T1, Sodium- and chloride-dependent GABA transporter 1 (Mus musculus, UniProt P31648); assay: Inhibition of mouse GAT1 expressed in HEK293 cells assessed as reduction in [3H]GABA uptake preincubated for 25 mins followed by [3H]GABA addition and measured after 4 mins by liquid scintillation counting method; type: cell-based
GABA transporter 4 = biological target: T2, GABA transporter 4 (Mus musculus, UniProt P31650); assay: Inhibition of mouse GAT4 expressed in HEK293 cells assessed as reduction in [3H]GABA uptake preincubated for 25 mins followed by [3H]GABA addition and measured after 4 mins by liquid scintillation counting method; type: cell-based
T2 sequence (P31650 whole entry): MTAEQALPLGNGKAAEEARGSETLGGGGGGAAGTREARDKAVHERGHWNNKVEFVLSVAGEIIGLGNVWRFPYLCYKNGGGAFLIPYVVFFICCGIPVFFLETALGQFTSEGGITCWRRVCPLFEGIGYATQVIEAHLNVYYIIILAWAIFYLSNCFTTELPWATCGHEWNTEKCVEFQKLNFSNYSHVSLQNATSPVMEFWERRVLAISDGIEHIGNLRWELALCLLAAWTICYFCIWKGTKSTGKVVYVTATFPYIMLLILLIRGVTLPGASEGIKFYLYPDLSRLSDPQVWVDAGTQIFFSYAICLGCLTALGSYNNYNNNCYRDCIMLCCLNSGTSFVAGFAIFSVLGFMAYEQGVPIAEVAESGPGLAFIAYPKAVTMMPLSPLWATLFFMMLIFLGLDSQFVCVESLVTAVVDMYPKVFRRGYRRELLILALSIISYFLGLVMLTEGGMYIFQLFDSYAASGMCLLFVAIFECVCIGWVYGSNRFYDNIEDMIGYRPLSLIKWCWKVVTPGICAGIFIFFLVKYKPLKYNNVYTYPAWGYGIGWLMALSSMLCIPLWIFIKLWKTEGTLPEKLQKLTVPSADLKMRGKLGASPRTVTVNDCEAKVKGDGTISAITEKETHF

[2] = biological target: T1, Sodium- and chloride-dependent GABA transporter 1; assay: Inhibition of NO711 binding to mouse GAT1 expressed in HEK293 cell membranes assessed as reduction in NO711 binding at incubated for 4 hrs in presence of NO711 by LC-ESI-MS/MS analysis relative to control
[3] = biological target: T3, GABA transporter 4 (Mus musculus) (UniProt P31650); assay: Inhibition of mouse GAT4 expressed in HEK293 cells assessed as remaining [3H]GABA uptake at 100 uM preincubated for 25 mins followed by [3H]GABA addition and measured after 4 mins by liquid scintillation counting method; type: cell-based
T3 sequence (whole entry): T2 sequence (P31650 whole entry)

[4] = test system: Sodium- and chloride-dependent betaine transporter (Mus musculus); assay: Inhibition of mouse GAT2 expressed in HEK293 cells assessed as remaining [3H]GABA uptake at 100 uM preincubated for 25 mins followed by [3H]GABA addition and measured after 10 mins by liquid scintillation counting method relative to control
[5] = test system: Sodium- and chloride-dependent GABA transporter 2 (Mus musculus); assay: Inhibition of mouse GAT3 expressed in HEK293 cells assessed as remaining [3H]GABA uptake at 100 uM preincubated for 25 mins followed by [3H]GABA addition and measured after 4 mins by liquid scintillation counting method

SMILES	IC50 [1] [nM]	IC50 (GABA transporter 4) [nM]	Ki [2] [nM]	Activity [3] [%]	Activity [4] [%]	Activity [5] [%]	Kd [2] [nM]
O=C(O)CC1CCNC1 (stereo not given)	4070						
O=C(O)C1CCNC1 (stereo not given)	67600						
O=C(O)C1CCN(CCO/N=C/c2ccccc2-c2ccc(F)cc2Cl)C1 (stereo not given)	4790	≥ 100000	692	66	52	75	
O=C(O)C1CCN(CCO/N=C/c2ccccc2-c2ccc(Cl)cc2Cl)C1 (stereo not given)	2290	≥ 100000	389	56		62	
O=C(O)C1=CCCN(CCON=C(c2ccccc2)c2ccccc2)C1							26.5
COc1cccc(F)c1-c1ccccc1/C=N/OCCN1CCC(C(=O)O)C1 (stereo not given)	1910	≥ 100000	407	89	86	93	
